# Data: patent US20160280670A1, “NOVEL COMPOUNDS FOR REGENERATION OF TERMINALLY-DIFFERENTIATED CELLS AND TISSUES” (ACOUSIA THERAPEUTICS GMBH, priority 2013, published 2016)
# Tested on: inner ear progenitor cells from the postnatal sensory organ of the mouse (differentiated sensory epithelial patches, "mini ears")
# Assay: Screening assay: EdU proliferation in differentiated inner ear progenitor sphere patches ("mini ears")
# Type: cell-based
# Details: test item 5 μM for 96 h
# From the text: A screening assay was employed according to an experimental protocol that enables the isolation of inner ear progenitor cells from the postnatal sensory organ of the mouse preparations in vitro. These isolated progenitors generate typical spheres that express a comprehensive set of marker genes that define the early developing sensory epithelium in the progenitor cell state. Under appropriate conditions these spheres can differentiate into epithelial patches that express marker genes that are characteristic of differentiating hair cells and supporting cells as found in the native organ of Corti. These differentiated sensory epithelial patches, tagged “mini ears”, can be generated in sufficient numbers for screening purposes in a low-throughput format. For an appropriate read-out, dedifferentiation was detected with three parameters: (i) labelling of Sox2 expression (Sox2=transcription factor SRY (sex determining region Y-box 2), (ii) an increase in the incorporation of EdU indication proliferation (EdU=thymidine analogue 5-Ethynyl2′-deoxyuridine), and (iii) labelling using the hair cell marker Myosin VIIA.
# Compounds were screened at a standard concentration of 5 μM. […]
# For ease of comparison the number of EdU positive cells was normalized to the DMSO only condition. Thus, the proliferation activity is expressed as “fold EdU positive cells”. […]
smiles,measurement,setting,value
"C[C@](N)(Cc1c[nH]c2ccccc12)c1nc(C(=O)NC2CCCCC2)co1.Cl [Compound 13, (S)-2-(2-amino-1-(1H-indol-3-yl)propan-2-yl)-N-cyclohexyloxazole-4-carboxamide hydrochloride]",Mean percentage of EdU positive cells,"EdU for the last 5 hours, patches after 14 days differentiation",3.59%
same,"Fold EdU positive re DMSO (proliferation activity, ""fold EdU positive cells"")","number of EdU positive cells normalized to DMSO only condition, hydrochloride",2.04 fold
